Measured values reported in PubChem BioAssay (NCI).
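Cells were grown in 96-well plates and exposed to each compound for 48 hours at five concentrations; endpoints were interpolated linearly between bracketing concentrations, or set to the highest concentration if not reached. The concentration for 50% growth inhibition is given as GI50. Definition used: TGI = concentration required for complete inhibition of growth.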

What was measured:
Assay in all cases: NCI-60 cell line screen, 48 h
[1] = tested on: HOP-92 NSCLC
[2] = tested on: U251 CNS
[3] = tested on: XF 498 CNS
[4] = tested on: OVCAR-3 ovarian
[5] = tested on: SF-539 CNS
[6] = tested on: TK-10 renal
[7] = tested on: UO-31 renal
[8] = tested on: LXFL 529 NSCLC
[9] = tested on: NCI-H23 lung
[10] = tested on: M19-MEL melanoma
[11] = tested on: RXF 393 renal
[12] = tested on: LOX IMVI melanoma
[13] = tested on: HCC-2998 colon
[14] = tested on: CAKI-1 renal
[15] = tested on: NCI/ADR-RES ovarian
[16] = tested on: A498 renal
[17] = tested on: MCF7 breast

O=C(NN1C(=O)C(Cl)C1c1ccc([N+](=O)[O-])cc1)c1ccccc1O (stereo not drawn)
TGI [1]: > 100 µM
TGI [2]: > 100 µM
TGI [3]: > 100 µM
TGI [4]: > 100 µM
TGI [5]: > 100 µM
TGI [6]: > 100 µM
TGI [7]: > 100 µM
TGI [8]: > 100 µM
TGI [9]: > 100 µM
TGI [10]: > 100 µM
TGI [11]: > 100 µM

Cn1nc2ccc3nccc(NCCNCCCl)c3c2n1
TGI [12]: > 100 µM
TGI [1]: > 100 µM
TGI [3]: > 100 µM
TGI [4]: > 100 µM
TGI [5]: > 100 µM
TGI [6]: > 100 µM
TGI [7]: > 100 µM
TGI [8]: > 100 µM
TGI [10]: > 100 µM
TGI [13]: > 100 µM
TGI [11]: > 100 µM

CCOC(=O)C1CCn2c(nc3c(=O)n(C)c(=O)n(C)c32)S1 (stereo not drawn)
TGI [12]: > 100 µM
TGI [2]: > 100 µM
TGI [4]: > 100 µM
TGI [14]: > 100 µM
TGI [5]: > 100 µM
TGI [6]: > 100 µM
TGI [8]: > 100 µM
TGI [9]: > 100 µM
TGI [11]: > 100 µM

CC(=O)O[C@H]1CC[C@H]2[C@@H]3CC[C@H]4Nc5c(cnn5S(C)(=O)=O)C[C@]4(C)[C@H]3CC[C@]12C
TGI [1]: > 100 µM
TGI [2]: > 100 µM
TGI [4]: 78.1 µM
TGI [14]: > 100 µM
TGI [15]: > 100 µM
TGI [16]: > 100 µM
TGI [7]: > 100 µM
TGI [17]: 82.4 µM
TGI [9]: > 100 µM
TGI [13]: > 100 µM
TGI [11]: > 100 µM

COc1cc(C2c3cc4c(cc3[C@@H](Nc3ccc(N5CCOCC5)cc3)C3COC(=O)[C@H]23)OCO4)cc(OC)c1O (stereo partly drawn)
TGI [12]: 4.27 µM
TGI [1]: 8.74 µM
TGI [2]: 1.89 µM
TGI [3]: 4.23 µM
TGI [4]: 13.2 µM
TGI [14]: 2.63 µM
TGI [5]: 2.32 µM
TGI [15]: 26.2 µM
TGI [16]: 3.2 µM
TGI [7]: 5.16 µM
TGI [17]: 14.7 µM
TGI [10]: 22.8 µM
TGI [13]: 4.1 µM
TGI [11]: 5.86 µM

O=C(/C=C/c1ccsc1)c1ccc(Cl)s1
TGI [12]: 37.1 µM
TGI [2]: > 100 µM
TGI [14]: > 100 µM
TGI [5]: > 100 µM
TGI [15]: > 100 µM
TGI [16]: > 100 µM
TGI [6]: > 100 µM
TGI [7]: > 100 µM
TGI [17]: > 100 µM
TGI [9]: > 100 µM
TGI [13]: > 100 µM

CN(C)S(=O)(=O)c1cccc(-c2nc3sc4c(c3c(=O)[nH]2)CCCC4)c1
GI50 [14]: > 100 µM
TGI [14]: > 100 µM
GI50 [15]: 2.83 µM
TGI [15]: > 100 µM
GI50 [17]: > 100 µM
TGI [17]: > 100 µM
